Structures can show the parent of a compound that is named as a salt.
Experiments:
NR1011/NR2B = target: T1, NR1011/NR2B (Rattus norvegicus, UniProt P35439+Q00960); test: NMDA receptor currents in Ba-Ringer, Xenopus oocytes, Example 3; type: cell-based
T1 construct: expressed in transfected cells; host or cells: Xenopus oocytes

wild-type NR1a/NR2A = target: T2, wild-type NR1a/NR2A (Rattus norvegicus, UniProt P35439+Q00959); test: NMDA-induced currents, Xenopus oocytes, Example 5; type: cell-based; settings: 100 uM steroid, 300 uM NMDA, 50 uM Glycine
T2 construct: expressed in transfected cells; host or cells: Xenopus laevis oocytes injected with in vitro transcribed mRNA
Method: Plasmids were linearized with appropriate restriction enzyme prior to in vitro transcription using the Message Machine kit (Ambion, Inc., Austin, Tex.).
Female, oocyte positive Xenopus laevis frogs were purchased from Xenopus I (Dexter, Mich). […] Oocytes were injected with 50 nL of RNA solutions using an electronic microinjector (Drummond Inc., Broomall, Pa.). […] The injected oocytes were used for experiments following 1-5 days of incubation in Barth's solution at 18-20° C.
The microelectrodes were fabricated with a programmed puller (Sutter Instrument Co., Calif.) from borosilicate glass capillaries and were filled with 3 M KCl solution. The resistance of filled microelectrodes was in the range of 1-3 MΩ. […] If not mentioned otherwise, during data acquisition oocytes were clamped at a holding potential of −70 mV. The membrane current was filtered at 500 Hz and sampled at 100 Hz. Drugs were applied using a gravity driven external perfusion system. The working ,volume of the recording chamber was 30 μl and the rate of the perfusion was 50 μl/sec. The drug application lasted 10 sec and was followed by a 60 sec wash. The data acquisition and external perfusion control were done using the SuperScopeII software package (GW Instruments, Mass.). All experiments were performed at room temperature (22-24° C.). […] The data are presented as mean±S.E.M. with number of experiments in parentheses.

[1] = system: primary cultures of rat hippocampal neurons; test: NMDA-induced increase in [Ca2+]i, Fluo-3 AM; type: cell-based; settings: 5 μM NMDA; steroid 100 μM (3α5β 50 μM)
Method: Principally neuronal cultures were prepared from hippocampal tissue of fetal Sprague-Dawley rats on day 18 of embryonic development, as previously described (Brewer et al., Brain Research 494: 65-74 (1989)). Briefly, hippocampal cells were dissociated by trituration in Ca^2+/Mg^2+-free Hank's basic salt solution (Gibco) supplemented with 4.2 mM bicarbonate, 1 mM sodium pyruvate, 20 mM HEPES, 3 mg/ml bovine serum albumin (BSA). Dissociated cells were then pelleted by centrifugation (500×g, 4 min). […] Cells were then plated onto poly-L-lysine-coated 24-well culture dishes (Nunclon) at a density of 15,000 cell/cm^2 and maintained in a humidified atmosphere containing 5% CO2/95% air at 37° C. After 48 h, nonneuronal cell division was inhibited by a 48 h exposure to 1 μM cytosine arabinoside. Cultures were subsequently maintained in serum-free DMEM plus defined components and were used for experiments 16 to 24 days after plating.
DMSO was also added to controls to maintain a constant final DMSO concentration of […].
All data are expressed as mean±standard error of the mean. Statistical significance was evaluated using 95% confidence limits unless otherwise noted.

NR1/NR2A (NR1100) = NR1/NR2A (NR1100) (Rattus norvegicus, UniProt P35439+Q00959); test: cell-based
Sequence of NR1/NR2A (NR1100) (Q00959 23-1464, other chains not shown): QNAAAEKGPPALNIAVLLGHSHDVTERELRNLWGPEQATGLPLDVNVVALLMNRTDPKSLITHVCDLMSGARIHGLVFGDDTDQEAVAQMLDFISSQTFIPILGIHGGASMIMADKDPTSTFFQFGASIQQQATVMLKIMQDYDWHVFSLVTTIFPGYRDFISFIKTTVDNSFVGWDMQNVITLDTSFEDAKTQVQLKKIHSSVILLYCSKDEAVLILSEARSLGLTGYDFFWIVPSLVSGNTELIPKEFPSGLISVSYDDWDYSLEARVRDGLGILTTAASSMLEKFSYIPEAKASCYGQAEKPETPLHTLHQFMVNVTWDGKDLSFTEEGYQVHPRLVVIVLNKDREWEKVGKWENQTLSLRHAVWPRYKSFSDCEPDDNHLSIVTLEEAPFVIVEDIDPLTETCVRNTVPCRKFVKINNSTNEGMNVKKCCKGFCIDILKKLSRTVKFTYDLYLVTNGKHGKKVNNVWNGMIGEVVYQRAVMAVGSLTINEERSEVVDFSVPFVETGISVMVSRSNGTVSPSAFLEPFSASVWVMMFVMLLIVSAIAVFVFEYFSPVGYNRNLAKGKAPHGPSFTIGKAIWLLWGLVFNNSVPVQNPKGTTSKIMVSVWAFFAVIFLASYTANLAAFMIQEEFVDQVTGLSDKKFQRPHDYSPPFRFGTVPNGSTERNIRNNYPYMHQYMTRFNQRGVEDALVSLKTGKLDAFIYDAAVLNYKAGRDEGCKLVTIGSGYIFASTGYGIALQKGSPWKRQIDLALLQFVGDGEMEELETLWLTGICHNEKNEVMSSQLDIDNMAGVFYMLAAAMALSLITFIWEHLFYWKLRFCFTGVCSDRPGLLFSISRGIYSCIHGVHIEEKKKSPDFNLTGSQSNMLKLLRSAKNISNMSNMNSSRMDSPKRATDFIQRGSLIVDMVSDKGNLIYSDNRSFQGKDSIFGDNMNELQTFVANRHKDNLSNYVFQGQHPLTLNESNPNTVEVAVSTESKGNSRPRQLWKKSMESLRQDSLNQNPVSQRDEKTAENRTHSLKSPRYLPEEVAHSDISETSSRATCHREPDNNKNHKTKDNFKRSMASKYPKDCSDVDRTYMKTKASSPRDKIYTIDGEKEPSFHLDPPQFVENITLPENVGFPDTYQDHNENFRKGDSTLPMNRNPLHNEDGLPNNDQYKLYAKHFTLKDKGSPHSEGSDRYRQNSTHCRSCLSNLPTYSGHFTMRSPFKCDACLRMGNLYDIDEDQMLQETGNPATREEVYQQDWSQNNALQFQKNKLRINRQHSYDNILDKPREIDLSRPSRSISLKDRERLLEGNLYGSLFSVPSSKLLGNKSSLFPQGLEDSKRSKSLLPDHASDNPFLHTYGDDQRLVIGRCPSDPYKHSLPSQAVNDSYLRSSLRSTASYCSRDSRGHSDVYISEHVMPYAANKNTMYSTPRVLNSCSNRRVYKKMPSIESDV
Source text: Plasmids containing the NR1100 (NR1G) and NR2A cDNA inserts were kindly provided by Dr. Nakanishi (Kyoto University Faculty of Medicine, Kyoto, Japan). Plasmids containing the NR2B, NR2C and NR2D cDNA inserts were kindly provided by Dr. P. Seeburg (Heidelberg University, Heidelberg, Germany). Plasmids were linearized with appropriate restriction enzyme prior to in vitro transcription using the Message Machine kit (Ambion, Inc., Austin, Tex.).
Female, oocyte-positive Xenopus laevis frogs were purchased from Xenopus I (Dexter, Mich.). […] Oocytes were injected with 50 nL of RNA solutions using an electronic microinjector (Drummond Inc., Broomall, Pa.). […] The injected oocytes were used for experiments following 1-5 days of incubation in Barth's solution at 18-20° C.
The microelectrodes were fabricated from borosilicate glass capillaries with a programmed puller (Sutter Instrument Co., Calif.). Microelectrode resistance was 1-3 MΩ_when filled with 3 M KCl.
Except where otherwise stated, oocytes were clamped at a holding potential of −70 mV during data acquisition. The membrane current was filtered at 500 Hz and sampled at 100 Hz. Drugs were applied using a gravity-driven external perfusion system. The working volume of the recording chamber was 30 μl and the rate of the perfusion was 50 μl/sec. The drug application lasted 10 sec and was followed by 60 s wash. Data acquisition and external perfusion were controlled using custom-written software implemented in the SuperScope II development environment (GW Instruments, Mass.). All experiments were performed at room temperature of 22-24° C. Peak or steady-state current measurements were normalized and expressed as a fraction of the peak or steady-state control current measurements, which were performed before and after application of every single concentration of agonists or steroids.
Concentration-response data were analyzed by nonlinear regress ion using the logistic equation Response=Emax/(1+(EC50/c)^nH), where c is concentration, Emaxis the maximum response, nHis the Hill coefficient. The data are presented as mean±SEM. EC50values are averaged as logarithms (De Lean et al., Am. J. Physiol. 235: E97-E102 (1978))±the SEM of the log EC50. […] The pooled data were simultaneously fitted to the logistic equation, either with Emax and EC50 constrained to be identical in the presence and absence of PS, or allowing one or both to vary independently. […] This was regarded as indicating a significant treatment effect of PS, but the change in EC50and Emaxwas not considered significant. […] No attempt was made to test the generally small changes in nHfor statistical significance.

T1 sequence (Q00960 27-1482, other chains not shown): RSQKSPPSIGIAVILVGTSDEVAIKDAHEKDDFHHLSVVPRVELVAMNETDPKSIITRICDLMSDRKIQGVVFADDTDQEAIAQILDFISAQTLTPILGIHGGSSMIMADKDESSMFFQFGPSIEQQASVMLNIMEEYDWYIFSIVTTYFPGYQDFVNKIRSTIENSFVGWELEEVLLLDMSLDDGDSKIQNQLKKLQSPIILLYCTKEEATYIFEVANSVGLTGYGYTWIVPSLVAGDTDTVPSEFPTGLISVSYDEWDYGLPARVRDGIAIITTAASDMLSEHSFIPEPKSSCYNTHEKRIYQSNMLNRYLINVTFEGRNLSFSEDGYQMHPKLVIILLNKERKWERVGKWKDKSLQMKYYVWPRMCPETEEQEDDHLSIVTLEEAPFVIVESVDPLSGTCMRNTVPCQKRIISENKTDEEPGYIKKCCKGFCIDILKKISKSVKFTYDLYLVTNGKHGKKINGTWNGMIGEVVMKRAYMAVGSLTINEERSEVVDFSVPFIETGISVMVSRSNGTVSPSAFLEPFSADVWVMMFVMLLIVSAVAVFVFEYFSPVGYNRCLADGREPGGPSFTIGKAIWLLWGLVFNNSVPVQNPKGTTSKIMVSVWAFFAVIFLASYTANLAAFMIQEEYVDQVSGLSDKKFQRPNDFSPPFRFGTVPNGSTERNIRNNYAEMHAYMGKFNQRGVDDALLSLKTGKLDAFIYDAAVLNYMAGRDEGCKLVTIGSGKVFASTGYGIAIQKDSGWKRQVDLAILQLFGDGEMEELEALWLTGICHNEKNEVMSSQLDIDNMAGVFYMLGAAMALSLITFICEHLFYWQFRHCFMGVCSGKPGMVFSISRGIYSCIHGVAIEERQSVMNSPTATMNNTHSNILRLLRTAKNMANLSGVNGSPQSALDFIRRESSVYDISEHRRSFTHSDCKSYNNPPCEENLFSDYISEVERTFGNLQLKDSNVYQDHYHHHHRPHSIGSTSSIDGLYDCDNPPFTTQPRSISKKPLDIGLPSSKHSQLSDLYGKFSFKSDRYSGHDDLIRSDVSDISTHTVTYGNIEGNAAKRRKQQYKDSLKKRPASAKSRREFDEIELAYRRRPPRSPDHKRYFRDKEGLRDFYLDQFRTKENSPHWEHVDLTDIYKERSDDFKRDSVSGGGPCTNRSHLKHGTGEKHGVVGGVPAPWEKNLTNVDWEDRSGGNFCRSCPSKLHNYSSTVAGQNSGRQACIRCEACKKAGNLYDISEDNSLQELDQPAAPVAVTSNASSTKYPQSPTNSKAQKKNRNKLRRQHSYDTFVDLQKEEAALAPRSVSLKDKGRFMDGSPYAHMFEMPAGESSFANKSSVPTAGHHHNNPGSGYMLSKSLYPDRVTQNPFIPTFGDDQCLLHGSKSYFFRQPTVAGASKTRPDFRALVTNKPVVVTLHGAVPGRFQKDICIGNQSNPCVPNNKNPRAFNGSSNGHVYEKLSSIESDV
T2 sequence (Q00959 23-1464, other chains not shown): as the sequence (Q00959 23-1464, other chains not shown) above

Molecule: pregnenolone sulfate [PS]
- PS Emax (NR1011/NR2B): 0.78 ± 0.14
- PS nHill (NR1011/NR2B): 1.29 ± 0.19

Molecule: CC(=O)[C@H]1CC[C@H]2[C@@H]3CC[C@@H]4C[C@H](OS(=O)(=O)O)CC[C@]4(C)[C@H]3CC[C@]12C [3α5βS, 3α5β-pregnanolone sulfate]
- percent decrease in maximum inward current (wild-type NR1a/NR2A): 45.49±5.76%
- reduction of NMDA-induced rise in [Ca2+]i [1]: 32±5%
- EC50 (NR1/NR2A (NR1100)): 62 µM
- Emax (NR1/NR2A (NR1100); read-out: 3α5βS Emax (% Change)): -81 ± 5%
